From patent US20250025460A1, “USE OF A COMBINATION OF LEVOSIMENDAN AND AN SGLT-2 INHIBITOR TO TREAT HEART FAILURE” (Tenax Therapeutics, Inc., priority 2021, published 2025)

Legend:
[1] = tested on: phosphodiesterase-3 (PDE3); settings: cited from earlier work
PDE4 = settings: cited from earlier work
[2] = tested on: whole cardiomyocytes and isolated contractile apparatus preparations; settings: cited from earlier work
[3] = follow-ups two weeks after treatment with levosimendan; cited from earlier work
[4] = in vivo; cited from earlier work
heart failure patients = settings: cited from earlier work
PH-HFpEF patient = test: HELP Study: rest and exercise right heart catheterization after 24-hour i.v. levosimendan, Patient 019-002; assay type: in vivo, human; settings: single 24-hour open label lead-in infusion
Description: (§1) During the HELP Study, as described in PCT International Application Publication No. WO 2021/126884, the entire contents of which are incorporated by reference, Patient 019-002 was administered empagliflozin shortly after beginning levosimendan therapy.
Specifically, Patient 019-002 had established PH-HFpEF and was initially enrolled into the HELP Trial. The diagnosis of PH-HFpEF was confirmed by rest and exercise right heart catheterization. […] The PCWP of 35 mmHg at rest increased with exercise to 55 mmHg at baseline. […] Thus, levosimendan produced a 40% fall in resting PCWP and a 33% fall in exercise PCWP. In addition, at baseline the CVP was 18 mmHg and increased to 30 mmHg with exercise. Following the 24 hours of i.v. levosimendan the CVP fell to 12 mmHg at rest and to 21 mmHg with exercise. Thus, levosimendan produced a 33% fall in resting CVP, and a 30% fall in CVP with exercise. Accordingly, the response of Patient 019-002 to levosimendan treatment was typical of other patients in the study in terms of improvements to their hemodynamic profile (FIG. 1).

PH-HFpEF patients = test: HELP Study: 6-minute walk distance; assay type: in vivo, human; settings: PH-HFpEF patients of the HELP Study, on average, levosimendan alone
Description: 6 MWT is the abbreviation for six-minute walk test. 6 MWT is a performance-based test used to measure functional exercise capacity. The 6 MWT measures the distance an individual is able to walk over a total of 6 minutes at a constant and normal pace. (Vandoni et al. 2018)
as §1

[5] = cited from earlier work

**Q.** For `CC(=O)Nc1ccc(C2=NNC(=O)C[C@H]2C)cc1` [OR-1896, (R)-N-(4-(4-methyl-6-oxo-1,4,5,6-tetrahydropyridazin-3-yl)phenyl) acetamide], which “potency in the inhibition of PDE3 compared with levosimendan” value [1] is on record?
**A.** profoundly less potent

**Q.** What about the “potency in the inhibition of PDE4 compared with levosimendan” value (PDE4) of the same molecule?
**A.** profoundly less potent

**Q.** What about the “inotropic effects, potency compared with levosimendan” value [2] of the same molecule?
**A.** equipotent

**Q.** And the “concentrations of metabolite at follow-up” value [3]?
**A.** detectable

**Q.** What about the “hemodynamic and pharmacologic properties / activity compared with levosimendan” value [4] of the same molecule?
**A.** similar

**Q.** Which results are given for `OC[C@H]1O[C@@H](c2ccc(Cl)c(Cc3ccc(O[C@H]4CCOC4)cc3)c2)[C@H](O)[C@@H](O)[C@@H]1O` [empagliflozin]?
**A.** 6-minute walk distance or quality of life (heart failure patients; EMBRACE HF, PH-HFpEF patients, empagliflozin alone): did not demonstrate a meaningful difference; exercise capacity as measured by change in six-minute walk distance (heart failure patients; EMPERIAL-Preserved and EMPERIAL-Reduced trials, empagliflozin alone): neither of these trials showed an improvement; exercise capacity as measured by a difference in 6 MWD (heart failure patients; HFpEF, HFrEF or PH-HFpEF patients, empagliflozin alone (EMPERIAL-Preserved, EMPERIAL-Reduced, EMBRACE HF)): did not demonstrate a material change

**Q.** Which results are given for `C[C@@H]1CC(=O)NN=C1c1ccc(N)cc1` [OR-1855, (R)-6-(4-aminophenyl)-5-methyl-4,5-dihydropyridazin-3(2H)-one]?
**A.** concentrations of metabolite at follow-up [3]: detectable; hemodynamic and pharmacologic properties / activity compared with levosimendan [4]: limited activity

**Q.** Which “change in pulmonary capillary wedge pressure (PCWP), FIG. 1” value (PH-HFpEF patient) does the source give for `C[C@@H]1CC(=O)NN=C1c1ccc(NN=C(C#N)C#N)cc1` [levosimendan] here?
**A.** decrease

**Q.** What about the “improvement of 6-minute walk distance” value (PH-HFpEF patients) of the same molecule?
**A.** approximately 29 m

**Q.** And the “plasma concentration profile of the levosimendan metabolite OR-1896” value ([5]; subcutaneous compared with intravenous administration of levosimendan)?
**A.** similar

**Q.** What about the “plasma concentrations of levosimendan” value ([5]; subcutaneous compared with intravenous administration) of the same molecule?
**A.** lower plasma concentrations
